The values below come from patent publication US20200055839A1 (priority 2017, published 2020).

Each structure is given as a SMILES string.

One may read the EC50 as the concentration that produces a half-maximal response. A high value points to lower potency in that assay.

In one assay the test system is NL-RLuc virus. In words: Inhibition of HIV replication (NL-RLuc virus, luciferase readout in MT-2 cells). The assay is classed as cell-based. The settings on record: Human immunodeficiency virus 1, MT2, 120 h, MT-2 cells infected with NL-RLuc virus, 5 days of incubation, 10% FBS, at least 2 experiments. The essentials: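 MT-2 cells infected with NL4-3-derived virus carrying Renilla luciferase in place of part of nef, grown 5 days with serial compound dilutions in RPMI 1640/10% FBS. Virus growth read as luciferase expression. EC50 from median effect equation, at least 2 experiments.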
In turn, `COc1ccc(-c2cnc(C)c([C@H](OC(C)(C)C)C(=O)O)c2N2CCC(C)(C)CC2)cc1` [Example 136, (2S)-2-(tert-Butoxy)-2-[4-(4,4-dimethylpiperidin-1-yl)-5-(4-methoxyphenyl)-2-methylpyridin-3-yl]acetic acid] had an EC50 of 2 nM. Take `Cc1nc(N)c([C@H](OC(C)(C)C)C(=O)O)c(N2CCC(C)(C)CC2)c1-c1ccc(OCCc2ccc(F)cc2)cc1` [Example 2, (S)-2-(2-Amino-4-(4,4-dimethylpiperidin-1-yl)-5-(4-(4-fluorophenethoxy)phenyl)-6-methylpyridin-3-yl)-2-(tert-butoxy)acetic acid]: the midpoint of the response, the EC50, lay at 5 nM. Molecule `COc1cc(-c2cnc(C)c([C@H](OC(C)(C)C)C(=O)O)c2N2CCC(C)(C)CC2)ccn1` [Example 164, (2S)-2-(tert-Butoxy)-2-[4-(4,4-dimethylpiperidin-1-yl)-2′-methoxy-6-methyl-[3, 4′-bipyridine]-5-yl]acetic acid] registered an EC50 of 4 nM. In the case of `Cc1ncc(-c2ccc(OCc3ccccc3F)cn2)c(N2CCC(C)(C)CC2)c1[C@H](OC(C)(C)C)C(=O)O` [Example 348, (2S)-2-(tert-butoxy)-2-[4′-(4,4-dimethylpiperidin-1-yl)-5-[(2-fluorophenyl)methoxy]-6′-methyl-[2,3′-bipyridine]-5′-yl]acetic acid], it took 0.6 nM to reach a half-maximal effect (EC50). In turn, `Cc1ncc(-c2ccc(OCc3ncnc4c3oc3ccccc34)cc2)c(N2CCC(C)(C)CC2)c1[C@H](OC(C)(C)C)C(=O)O` [Example 19, (2S)-2-(tert-Butoxy)-2-[4-(4,4-dimethylpiperidin-1-yl)-2-methyl-5-[4-({8-oxa-3,5-diazatricyclo[7.4.0.0^2,7]trideca-1(9), 2(7), 3,5,10,12-hexaen-6-yl}methoxy)phenyl]pyridin-3-yl]acetic acid] gave an EC50 of 4 nM. As to `Cc1nc(N)c(-c2cnc(OCCc3cccc(F)c3)c(F)c2)c(N2CCC(C)(C)CC2)c1[C@H](OC(C)(C)C)C(=O)O` [Example 116, (S)-2-(2-Amino-4-(4,4-dimethylpiperidin-1-yl)-5′-fluoro-6′-(3-fluorophenethoxy)-6-methyl-[3, 3′-bipyridin]-5-yl)-2-(tert-butoxy)acetic acid], the EC50 is 1 nM.

Consider `Cc1ncc(-c2ccc(OCC(C)C)cn2)c(N2CCC(C)(C)CC2)c1[C@H](OC(C)(C)C)C(=O)O` [Example 312, (2S)-2-(tert-butoxy)-2-[4′-(4,4-dimethylpiperidin-1-yl)-6′-methyl-5-(2-methylpropoxy)-[2,3′-bipyridine]-5′-yl]acetic acid], for which the half-maximal effective concentration (EC50) amounted to 1 nM. The same measure, in the same setting: the value for `Cc1nc(-n2cccn2)c(-c2ccc(OCCc3ccc(F)cc3)cc2)c(N2CCC(C)(C)CC2)c1[C@H](OC(C)(C)C)C(=O)O` [Example 62, (S)-2-(tert-Butoxy)-2-(4-(4,4-dimethylpiperidin-1-yl)-5-(4-(4-fluorophenethoxy)phenyl)-2-methyl-6-(1H-pyrazol-1-yl)pyridin-3-yl)acetic acid] was 3 nM. Molecule `COc1ccccc1CCOc1ccc(-c2cnc(C)c([C@H](OC(C)(C)C)C(=O)O)c2N2CCC(C)(C)CC2)nc1` [Example 296, (2S)-2-(tert-butoxy)-2-[4′-(4,4-dimethylpiperidin-1-yl)-5-[2-(2-methoxyphenyl)ethoxy]-6′-methyl-[2,3′-bipyridine]-5′-yl]acetic acid] returned an EC50 of 2 nM. `Cc1ccccc1-c1cnc(C)c([C@H](OC(C)(C)C)C(=O)O)c1N1CCC(C)(C)CC1` [Example 137, (2S)-2-(tert-Butoxy)-2-[4-(4,4-dimethylpiperidin-1-yl)-2-methyl-5-(2-methylphenyl)pyridin-3-yl]acetic acid]: the EC50 was 53 nM. Molecule `COc1ccc(COc2ccc(-c3cnc(C)c([C@H](OC(C)(C)C)C(=O)O)c3N3CCC(C)(C)CC3)nc2)cc1` [Example 339, (2S)-2-(tert-butoxy)-2-[4′-(4,4-dimethylpiperidin-1-yl)-5-[(4-methoxyphenyl)methoxy]-6′-methyl-[2,3′-bipyridine]-5′-yl]acetic acid] gave an EC50 of 2 nM. `Cc1ncc(-c2cnc(OCCc3c(F)cccc3Cl)c(F)c2)c(N2CCC(C)(C)CC2)c1[C@H](OC(C)(C)C)C(=O)O` [Example 239, (S)-2-(tert-Butoxy)-2-(6′-(2-chloro-6-fluorophenethoxy)-4-(4,4-dimethylpiperidin-1-yl)-5′-fluoro-6-methyl-[3, 3′-bipyridin]-5-yl)acetic acid]: the midpoint of the response, the EC50, lay at 3 nM. Molecule `Cc1ncc(-c2cnc(O[C@H](C)Cc3ccccc3)c(F)c2)c(N2CCC(C)(C)CC2)c1[C@H](OC(C)(C)C)C(=O)O` [Example 380, (2S)-2-(tert-butoxy)-2-[4-(4,4-dimethylpiperidin-1-yl)-5′-fluoro-6-methyl-6′-{[(2R)-1-phenylpropan-2-yl]oxy}-[3,3′-bipyridine]-5-yl]acetic acid] came in with an EC50 of 2 nM. In turn, `COc1ccccc1-c1cnc(C)c([C@H](OC(C)(C)C)C(=O)O)c1N1CCC(C)(C)CC1` [Example 167, (2S)-2-(tert-Butoxy)-2-[4-(4,4-dimethylpiperidin-1-yl)-5-(2-methoxyphenyl)-2-methylpyridin-3-yl]acetic acid] registered an EC50 of 5 nM. In turn, `COc1cccc(-c2cnc(C)c([C@H](OC(C)(C)C)C(=O)O)c2N2CCC(C)(C)CC2)c1OC` [Example 158, (2S)-2-(tert-Butoxy)-2-[5-(2,3-dimethoxyphenyl)-4-(4,4-dimethylpiperidin-1-yl)-2-methylpyridin-3-yl]acetic acid] returned an EC50 of 16 nM. As to `Cc1ncc(-c2cc(F)c(F)c(F)c2)c(N2CCC(C)(C)CC2)c1[C@H](OC(C)(C)C)C(=O)O` [Example 129, (2S)-2-(tert-Butoxy)-2-[4-(4,4-dimethylpiperidin-1-yl)-2-methyl-5-(3,4,5-trifluorophenyl)pyridin-3-yl]acetic acid], the EC50 was determined as 3 nM. For `Cc1ncc(-c2ccc(OCc3cccc(Cl)c3)cn2)c(N2CCC(C)(C)CC2)c1[C@H](OC(C)(C)C)C(=O)O` [Example 337, (2S)-2-(tert-butoxy)-2-{5-[(3-chlorophenyl)methoxy]-4′-(4,4-dimethylpiperidin-1-yl)-6′-methyl-[2,3′-bipyridine]-5′-yl}acetic acid], the EC50 amounted to 2 nM.

As for `CCC(CC)COc1ccc(-c2cnc(C)c([C@H](OC(C)(C)C)C(=O)O)c2N2CCC(C)(C)CC2)nc1` [Example 359, (2S)-2-(tert-butoxy)-2-[4′-(4,4-dimethylpiperidin-1-yl)-5-(2-ethylbutoxy)-6′-methyl-[2,3′-bipyridine]-5′-yl]acetic acid], the EC50 was determined as 2 nM.

The molecule `Cc1ncc(-c2ccc(OCCc3c(Cl)cccc3Cl)cn2)c(N2CCC(C)(C)CC2)c1[C@H](OC(C)(C)C)C(=O)O` [Example 297, (2S)-2-(tert-butoxy)-2-{5-[2-(2,6-dichlorophenyl)ethoxy]-4′-(4,4-dimethylpiperidin-1-yl)-6′-methyl-[2,3′-bipyridine]-5′-yl}acetic acid] showed an EC50 of 1 nM. Take `Cc1ncc(-c2ccc(OCCCc3ccccc3)cn2)c(N2CCC(C)(C)CC2)c1[C@H](OC(C)(C)C)C(=O)O` [Example 321, (2S)-2-(tert-butoxy)-2-[4′-(4,4-dimethylpiperidin-1-yl)-6′-methyl-5-(3-phenylpropoxy)-[2,3′-bipyridine]-5′-yl]acetic acid]: the EC50 is 0.5 nM. For `CC1(C)CCN(c2c(-c3ccc(CNc4ncnc5c4oc4ccccc45)c(F)c3)cnc(Cl)c2[C@H](OC(C)(C)C)C(=O)O)CC1` [Example 221, (S)-2-(5-(4-((Benzofuro[3,2-d]pyrimidin-4-ylamino)methyl)-3-fluorophenyl)-2-chloro-4-(4,4-dimethylpiperidin-1-yl)pyridin-3-yl)-2-(tert-butoxy)acetic acid], the EC50 amounted to 0.3 nM. As to `Cc1[nH]c(=O)c([C@H](OC(C)(C)C)C(=O)O)c(N2CCC(C)(C)CC2)c1-c1ccc(OCCc2ccc(F)cc2)cc1` [Example 4, (S)-2-(tert-butoxy)-2-(4-(4,4-dimethylpiperidin-1-yl)-5-(4-(4-fluorophenethoxy)phenyl)-6-methyl-2-oxo-1,2-dihydropyridin-3-yl)acetic acid], the EC50 came to 8 nM. Consider `Cc1nc(Nc2cccc(F)n2)c(-c2ccc(OCCc3ccc(F)cc3)cc2)c(N2CCC(C)(C)CC2)c1[C@H](OC(C)(C)C)C(=O)O` [Example 89, (S)-2-(tert-Butoxy)-2-(4-(4,4-dimethylpiperidin-1-yl)-5-(4-(4-fluorophenethoxy)phenyl)-6-((6-fluoropyridin-2-yl)amino)-2-methylpyridin-3-yl)acetic acid], for which the EC50 amounted to 13 nM. Turning to `Cc1nc(-c2cnn(C)c2)c(-c2ccc(OCCc3ccc(F)cc3)cc2)c(N2CCC(C)(C)CC2)c1[C@H](OC(C)(C)C)C(=O)O` [Example 36, (S)-2-(tert-Butoxy)-2-(4-(4,4-dimethylpiperidin-1-yl)-5-(4-(4-fluorophenethoxy)phenyl)-2-methyl-6-(1-methyl-H-pyrazol-4-yl)pyridin-3-yl)acetic acid], the EC50 was 4 nM.

On to `Cc1ncc(-c2ccc(OCCc3cccc(Cl)c3F)cn2)c(N2CCC(C)(C)CC2)c1[C@H](OC(C)(C)C)C(=O)O` [Example 354, (2S)-2-(tert-butoxy)-2-{5-[2-(3-chloro-2-fluorophenyl)ethoxy]-4′-(4,4-dimethylpiperidin-1-yl)-6′-methyl-[2,3′-bipyridine]-5′-yl}acetic acid], for which the EC50 came out at 0.5 nM. Molecule `COc1cccc(-c2cnc(C)c([C@H](OC(C)(C)C)C(=O)O)c2N2CCC(C)(C)CC2)c1` [Example 168, (2S)-2-(tert-Butoxy)-2-[4-(4,4-dimethylpiperidin-1-yl)-5-(3-methoxyphenyl)-2-methylpyridin-3-yl]acetic acid] showed an EC50 of 4 nM.

The assay is the same for the next values; noted with them: MT-2 cells infected with NL-RLuc virus, 5 days of incubation, 10% FBS, at least 2 experiments.
`Cc1nc(N)c(-c2ccc(OCCc3ccc(F)cc3)c(F)c2F)c(N2CCC(C)(C)CC2)c1[C@H](OC(C)(C)C)C(=O)O` (single isomer, unassigned) [Example 71] displayed an EC50 of 2 nM.
